Experimental data as given in patent publication US20190353647A1, “NOVEL REAL-TIME MULTIPLEXED, MULTI-COLOR BIOLUMINESCENCE RESONANCE ENERGY TRANSFER ASSAY, APPARATUS, AND USES THEREOF” (Universite de Bordeaux, priority 2016, published 2019).

Target: T1, TRPV1 (Homo sapiens, UniProt Q8NER1)
T1 construct: expressed in transfected cells; host or cells: HEK293T
Assay: Intramolecular BRET assay, YFP-TRPV1-Luc probe in HEK293T cells
Assay type: cell-based
Settings: for Effect on CAPS-induced BRET increase: intramolecular test
Source text: They were referred as YFP and Luc for short in the rest of the manuscript. The cDNA of Luc and YFP were first cloned together using a three-piece ligation in the BamHI/XhoI site of pcDNA3.1(+) (Invitrogen, Carlsbad, Calif., USA), yielding two expression vectors pcDNA3.1 YFP-Luc where YFP was cloned in-fusion at the N-terminal of Luc, and pcDNA3.1 Luc-YFP where Luc was cloned in-fusion at the N-terminal of YFP. Both YFP and Luc were amplified by PCR from the pcDNA3-YFP-EPAC-Luc vector. Luc was cloned either at the N-terminal of YFP as a HindIII-EcoRI fragment (primers used: “Luc_HindIII_ATGN-term sense” and “Luc_no Stop_EcoRI_N-term antisense”) or at the COOH-terminal of YFP as an EcoRI-XhoI fragment (primer used: “Luc_EcoRI_ATG_C-term sense” and “Luc_XhoI_Stop_C-term antisense”). In parallel, YFP was cloned either at the N-terminal of Luc as a HindIII-EcoRI fragment (primers used: “YFP_HindIII_ATG_N-term sense” and “YFP_no Stop_EcoRI_N-term antisense”) or at the COOH-terminal of Luc as a EcoRI-XhoI fragment (primer used: “YFP_EcoRI_ATG_C-term sense” and “YFP_XhoI_Stop_C-term antisense”). The sequence joining Luc and YFP sequence encoded […] NO: 18) as a linker, and contained an AgeI restriction site. The YFP-hTRPV1-Luc expression vector was obtained by subcloning the human TRPV1 cDNA from the pDONR201-hTRPV1 vector (Harvard Medical School PlasmID Repository, clone HsCD00081472) as an EcoRI PCR fragment in the EcoRI site of the vector pcDNA3.1 YFP-Luc (primer used: “hTRPV1_EcoRI_Fus_Sense” and “hTRPV1_EcoRI_Fus_antisense”). The hTRPV1-Luc expression vector was obtained by subcloning the cDNA of hTRPV1 as a HindIII-EcoRI fragment in place of the YFP in the HindIII-EcoRI site of the pcDNA3.1 YFP-Luc vector (primer used: “hTRPV1_HindIII_ATG_Sense” and “hTRPV1_EcoRI_Fus_antisense”). The Luc-hTRPV3 expression vector was obtained by subcloning the cDNA of hTRPV3 (Harvard Medical School PlasmID Repository, clone HsCD00341603) as a AgeI-XhoI fragment in place of the YFP in the AgeI-XhoI sites of the pcDNA3.1 Luc-YFP vector (primer used: “hTRPV3_AgeI_ATG_Sense” and “[…]_XhoI_antisense”). The hTRPV4-Luc expression vector was obtained by subcloning the cDNA of hTRPV4 as a BamHI-AgeI fragment in place of the YFP in the BamHI-AgeI site of the pcDNA3.1 YFP-Luc vector (primer used: “hTRPV4_BamHI_ATG_Sense” and hTRPV4_AgeI_Fus_antisense”). In each case, the sequence joining the cDNA of interest and either Luc or YFP sequence encoded […] NO: 18) as a linker. HEK293T cells were maintained in Dulbecco's modified Eagle's medium-high Glucose (DMEM) (D6429, Sigma) supplemented with 10% fetal bovine serum, 100 units mL-1 penicillin and streptomycin. Twenty-four hours before transfection, cells were seeded at a density of 500,000 cells in 6-well dishes. Transient transfections were performed using polyethylenimine (PEI, linear, Mr 25,000; catalogue number 23966 Polysciences, Inc., Warrington, Pa., USA) with a PEI:DNA ratio of 4:1. […] The amount of transfected DNA was completed to a total of 2 μg with pcDNA3.1 empty vector. After overnight incubation, transfected cells were then detached, resuspended in DMEM w/o red phenol (Ref 21063-029, ThermoFisher scientific, Waltham, Mass., USA) and replated at a density of 10^5 cells per well in 96-well white plates with clear bottoms (Greiner Bio one, Courtaboeuf, France) pre-treated with D-polylysine (Sigma) for reading with the Tristar2 luminometer (Berthold Technologies, Bad Wildbad, Germany) or onto 12 mm diameter glass coverslips ([…], Braunschweig, Germany) treated with poly-L-lysine for the reading with the SpectraPro 2300i spectrometer (Acton Optics, Acton, Mass., USA). Cells were left in culture for 24 h before being processed for the BRET assay.

[1] = temperature rise from 25 to 42° C.

T1 sequence (Q8NER1 whole entry): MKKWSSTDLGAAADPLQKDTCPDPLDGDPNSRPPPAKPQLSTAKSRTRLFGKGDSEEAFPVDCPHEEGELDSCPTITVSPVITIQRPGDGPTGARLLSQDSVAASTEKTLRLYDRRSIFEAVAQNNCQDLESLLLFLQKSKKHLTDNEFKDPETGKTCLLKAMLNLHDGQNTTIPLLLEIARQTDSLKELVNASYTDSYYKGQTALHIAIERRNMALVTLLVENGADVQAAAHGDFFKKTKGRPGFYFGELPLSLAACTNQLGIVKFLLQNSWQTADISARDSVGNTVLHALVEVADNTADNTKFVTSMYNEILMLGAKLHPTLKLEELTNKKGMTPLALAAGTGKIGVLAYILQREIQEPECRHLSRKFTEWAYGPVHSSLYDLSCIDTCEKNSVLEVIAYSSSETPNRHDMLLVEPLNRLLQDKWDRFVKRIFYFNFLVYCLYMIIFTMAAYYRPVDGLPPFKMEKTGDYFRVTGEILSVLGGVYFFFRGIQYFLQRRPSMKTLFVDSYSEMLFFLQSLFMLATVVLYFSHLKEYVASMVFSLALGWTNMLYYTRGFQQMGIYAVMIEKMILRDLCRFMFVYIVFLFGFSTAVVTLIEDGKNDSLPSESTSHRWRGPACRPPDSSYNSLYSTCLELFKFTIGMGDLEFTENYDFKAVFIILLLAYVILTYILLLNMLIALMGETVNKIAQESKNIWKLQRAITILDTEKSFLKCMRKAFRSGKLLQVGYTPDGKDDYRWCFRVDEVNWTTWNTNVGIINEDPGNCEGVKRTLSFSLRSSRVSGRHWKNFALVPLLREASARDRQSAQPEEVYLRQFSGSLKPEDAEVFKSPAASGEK

## COc1cc(CNC(=O)CCCC/C=C/C(C)C)ccc1O [CAPS, Capsaicin]
  Change of basal BRET signal: increased with a first order kinetic
[1]
  Change in CAPS potency on temperature rise: leftward shift
  Change in maximal efficacy on temperature rise: increase

## Oc1cc2c(cc1O)CN(C(=S)NCCc1ccc(Cl)cc1)CCC2 [CPZ, Capsazepine]
Heating 25 to 50° C.
  Temperature-dependent behaviour of the probe after preincubation: completely modified the temperature-dependent behaviour
  Effect on CAPS-induced BRET increase: inhibited

## CC(=O)Nc1nc2c(Oc3cc(-c4ccc(C(F)(F)F)cc4)ncn3)cccc2s1 [AMG517]
  Effect on CAPS-induced BRET increase: inhibited
